Laboratory results reported in patent US4245106A, “Process for the preparation of 1-alkyl-3-aryl-4-pyrazolecarboxylates” (Monsanto Company, priority 1979, dated 1981).

Columns and labels:
Type in all cases: in vivo
Barnyard grass [1] = experiment: pre-emergent herbicidal activity test
Experimental: (§1) Table II summarizes results of tests conducted to determine the pre-emergent as well as the post-emergent herbicidal activity of the compounds. The pre-emergent test was conducted as follows:
(§2) A good grade of top soil was placed in aluminum pans and compacted to a depth of three-eighths to one-half inch from the top of the pan. On the top of the soil was placed a predetermined number of seeds or vegetative propagules of various plant species. The soil required to level fill the pans after seeding or adding vegetative propagules was weighed into a pan. A known amount of the active ingredient applied in a solvent or as a wettable powder and the soil were thoroughly mixed, and used as a cover layer for prepared pans. After treatment the pans were moved into a greenhouse bench where they were watered from below as needed to give adequate moisture for germination and growth.
(§3) A herbicial rating code was used to signify the extent of phytotoxicity of each species. The rating are defined as follows: […]

Bromus tectorum [2] = experiment: pre-emergent herbicidal activity test
Experimental: as §1, §2, §3

Canada Thistle [3] = experiment: pre-emergent herbicidal activity test
Experimental: as §1, §2, §3

Cocklebur [4] = experiment: pre-emergent herbicidal activity test
Experimental: as §1, §2, §3

Johnsongrass [5] = experiment: pre-emergent herbicidal activity test
Experimental: as §1, §2, §3

Lambsquarter [6] = experiment: pre-emergent herbicidal activity test
Experimental: as §1, §2, §3

Morningglory [7] = experiment: pre-emergent herbicidal activity test
Experimental: as §1, §2, §3

Nutsedge [8] = experiment: pre-emergent herbicidal activity test
Experimental: as §1, §2, §3

Quackgrass [9] = experiment: pre-emergent herbicidal activity test
Experimental: as §1, §2, §3

Smartweed [10] = experiment: pre-emergent herbicidal activity test
Experimental: as §1, §2, §3

Velvetleaf [11] = experiment: pre-emergent herbicidal activity test
Experimental: as §1, §2, §3

Barnyard grass [12] = experiment: post-emergent herbicidal activity test
Experimental: (§4) The post-emergent tests were conducted as follows. The active ingredients are applied in spray form to two or three-week old specimens of various plant species. The spray, a solution or wettable powder suspension containing the appropriate rate of active ingredient to give the desired test rate and a surfactant, is applied to the plants. The treated plants are placed in a greenhouse and unless otherwise noted approximately four weeks later the effects are observed and recorded.

Bromus tectorum [13] = experiment: post-emergent herbicidal activity test
Experimental: as §4

Canada Thistle [14] = experiment: post-emergent herbicidal activity test
Experimental: as §4

Cocklebur [15] = experiment: post-emergent herbicidal activity test
Experimental: as §4

Johnsongrass [16] = experiment: post-emergent herbicidal activity test
Experimental: as §4

Lambsquarter [17] = experiment: post-emergent herbicidal activity test
Experimental: as §4

Morningglory [18] = experiment: post-emergent herbicidal activity test
Experimental: as §4

Nutsedge [19] = experiment: post-emergent herbicidal activity test
Experimental: as §4

Quackgrass [20] = experiment: post-emergent herbicidal activity test
Experimental: as §4

Smartweed [21] = experiment: post-emergent herbicidal activity test
Experimental: as §4

Velvetleaf [22] = experiment: post-emergent herbicidal activity test
Experimental: as §4

[23] = 11.2 Kg/Ha, approximately 28 days after seeding and treating
[24] = *11.2 Kg/Ha, observed approximately 14 days after treatment
[25] = 11.2 Kg/Ha, approximately four weeks later
Note: ranges in brackets are in %.

## CCOC(=O)c1cn(C)nc1-c1cccc(C(F)(F)F)c1 [Example 12]
Barnyard grass [1]; [23]
  Pre-Emergent herbicidal rating, K Barnyard grass: 3 (75-100)
Barnyard grass [1]; [24]
  Pre-Emergent herbicidal rating, K Barnyard grass: 3 (75-100)
Bromus tectorum [2]; [23]
  Pre-Emergent herbicidal rating, J Bromus tectorum: 1 (25-49)
Bromus tectorum [2]; [24]
  Pre-Emergent herbicidal rating, J Bromus tectorum: 2 (50-74)
Canada Thistle [3]; [23]
  Pre-Emergent herbicidal rating, A Canada Thistle: 0 (0-24)
Canada Thistle [3]; [24]
  Pre-Emergent herbicidal rating, A Canada Thistle: 2 (50-74)
Cocklebur [4]; [23]
  Pre-Emergent herbicidal rating, B Cocklebur: 0 (0-24)
Cocklebur [4]; [24]
  Pre-Emergent herbicidal rating, B Cocklebur: 0 (0-24)
Johnsongrass [5]; [23]
  Pre-Emergent herbicidal rating, I Johnsongrass: 0 (0-24)
Johnsongrass [5]; [24]
  Pre-Emergent herbicidal rating, I Johnsongrass: 0 (0-24)
Lambsquarter [6]; [23]
  Pre-Emergent herbicidal rating, E Lambsquarter: 3 (75-100)
Lambsquarter [6]; [24]
  Pre-Emergent herbicidal rating, E Lambsquarter: 3 (75-100)
Morningglory [7]; [23]
  Pre-Emergent herbicidal rating, D Morningglory: 3 (75-100)
Morningglory [7]; [24]
  Pre-Emergent herbicidal rating, D Morningglory: 3 (75-100)
Nutsedge [8]; [23]
  Pre-Emergent herbicidal rating, G Nutsedge: 0 (0-24)
Nutsedge [8]; [24]
  Pre-Emergent herbicidal rating, G Nutsedge: 0 (0-24)
Quackgrass [9]; [23]
  Pre-Emergent herbicidal rating, H Quackgrass: 0 (0-24)
Quackgrass [9]; [24]
  Pre-Emergent herbicidal rating, H Quackgrass: 0 (0-24)
Smartweed [10]; [23]
  Pre-Emergent herbicidal rating, F Smartweed: 3 (75-100)
Smartweed [10]; [24]
  Pre-Emergent herbicidal rating, F Smartweed: 3 (75-100)
Velvetleaf [11]; [23]
  Pre-Emergent herbicidal rating, C Velvetleaf: 3 (75-100)
Velvetleaf [11]; [24]
  Pre-Emergent herbicidal rating, C Velvetleaf: 3 (75-100)
Barnyard grass [12]; [25]
  Post-Emergent herbicidal rating, K Barnyard grass: 0 (0-24)
Barnyard grass [12]; [24]
  Post-Emergent herbicidal rating, K Barnyard grass: 1 (25-49)
Bromus tectorum [13]; [25]
  Post-Emergent herbicidal rating, J Bromus tectorum: 0 (0-24)
Bromus tectorum [13]; [24]
  Post-Emergent herbicidal rating, J Bromus tectorum: 0 (0-24)
Canada Thistle [14]; [25]
  Post-Emergent herbicidal rating, A Canada Thistle: 1 (25-49)
Canada Thistle [14]; [24]
  Post-Emergent herbicidal rating, A Canada Thistle: 1 (25-49)
Cocklebur [15]; [25]
  Post-Emergent herbicidal rating, B Cocklebur: 1 (25-49)
Cocklebur [15]; [24]
  Post-Emergent herbicidal rating, B Cocklebur: 1 (25-49)
Johnsongrass [16]; [25]
  Post-Emergent herbicidal rating, I Johnsongrass: 0 (0-24)
Johnsongrass [16]; [24]
  Post-Emergent herbicidal rating, I Johnsongrass: 0 (0-24)
Lambsquarter [17]; [25]
  Post-Emergent herbicidal rating, E Lambsquarter: 1 (25-49)
Lambsquarter [17]; [24]
  Post-Emergent herbicidal rating, E Lambsquarter: 2 (50-74)
Morningglory [18]; [25]
  Post-Emergent herbicidal rating, D Morningglory: 2 (50-74)
Morningglory [18]; [24]
  Post-Emergent herbicidal rating, D Morningglory: 3 (75-99)
Nutsedge [19]; [25]
  Post-Emergent herbicidal rating, G Nutsedge: 0 (0-24)
Nutsedge [19]; [24]
  Post-Emergent herbicidal rating, G Nutsedge: 0 (0-24)
Quackgrass [20]; [25]
  Post-Emergent herbicidal rating, H Quackgrass: 0 (0-24)
Quackgrass [20]; [24]
  Post-Emergent herbicidal rating, H Quackgrass: 0 (0-24)
Smartweed [21]; [25]
  Post-Emergent herbicidal rating, F Smartweed: 1 (25-49)
Smartweed [21]; [24]
  Post-Emergent herbicidal rating, F Smartweed: 0 (0-24)
Velvetleaf [22]; [25]
  Post-Emergent herbicidal rating, C Velvetleaf: 1 (25-49)
Velvetleaf [22]; [24]
  Post-Emergent herbicidal rating, C Velvetleaf: 1 (25-49)

## CCOC(=O)c1cn(CC)nc1-c1cccc(C(F)(F)F)c1 [Example 1]
Barnyard grass [1]; [23]
  Pre-Emergent herbicidal rating, K Barnyard grass: 3 (75-100)
Barnyard grass [1]; [24]
  Pre-Emergent herbicidal rating, K Barnyard grass: 3 (75-100)
Bromus tectorum [2]; [23]
  Pre-Emergent herbicidal rating, J Bromus tectorum: 1 (25-49)
Bromus tectorum [2]; [24]
  Pre-Emergent herbicidal rating, J Bromus tectorum: 2 (50-74)
Canada Thistle [3]; [23]
  Pre-Emergent herbicidal rating, A Canada Thistle: 1 (25-49)
Canada Thistle [3]; [24]
  Pre-Emergent herbicidal rating, A Canada Thistle: 1 (25-49)
Cocklebur [4]; [23]
  Pre-Emergent herbicidal rating, B Cocklebur: 0 (0-24)
Cocklebur [4]; [24]
  Pre-Emergent herbicidal rating, B Cocklebur: 1 (25-49)
Johnsongrass [5]; [23]
  Pre-Emergent herbicidal rating, I Johnsongrass: 0 (0-24)
Johnsongrass [5]; [24]
  Pre-Emergent herbicidal rating, I Johnsongrass: 0 (0-24)
Lambsquarter [6]; [23]
  Pre-Emergent herbicidal rating, E Lambsquarter: 3 (75-100)
Lambsquarter [6]; [24]
  Pre-Emergent herbicidal rating, E Lambsquarter: 3 (75-100)
Morningglory [7]; [23]
  Pre-Emergent herbicidal rating, D Morningglory: 0 (0-24)
Morningglory [7]; [24]
  Pre-Emergent herbicidal rating, D Morningglory: 2 (50-74)
Nutsedge [8]; [23]
  Pre-Emergent herbicidal rating, G Nutsedge: 0 (0-24)
Nutsedge [8]; [24]
  Pre-Emergent herbicidal rating, G Nutsedge: 0 (0-24)
Quackgrass [9]; [23]
  Pre-Emergent herbicidal rating, H Quackgrass: 0 (0-24)
Quackgrass [9]; [24]
  Pre-Emergent herbicidal rating, H Quackgrass: 1 (25-49)
Smartweed [10]; [23]
  Pre-Emergent herbicidal rating, F Smartweed: 1 (25-49)
Smartweed [10]; [24]
  Pre-Emergent herbicidal rating, F Smartweed: 3 (75-100)
Velvetleaf [11]; [23]
  Pre-Emergent herbicidal rating, C Velvetleaf: 3 (75-100)
Velvetleaf [11]; [24]
  Pre-Emergent herbicidal rating, C Velvetleaf: 3 (75-100)
Barnyard grass [12]; [25]
  Post-Emergent herbicidal rating, K Barnyard grass: 0 (0-24)
Barnyard grass [12]; [24]
  Post-Emergent herbicidal rating, K Barnyard grass: 1 (25-49)
Bromus tectorum [13]; [25]
  Post-Emergent herbicidal rating, J Bromus tectorum: 0 (0-24)
Bromus tectorum [13]; [24]
  Post-Emergent herbicidal rating, J Bromus tectorum: 1 (25-49)
Canada Thistle [14]; [25]
  Post-Emergent herbicidal rating, A Canada Thistle: 1 (25-49)
Canada Thistle [14]; [24]
  Post-Emergent herbicidal rating, A Canada Thistle: 1 (25-49)
Cocklebur [15]; [25]
  Post-Emergent herbicidal rating, B Cocklebur: 1 (25-49)
Cocklebur [15]; [24]
  Post-Emergent herbicidal rating, B Cocklebur: 1 (25-49)
Johnsongrass [16]; [25]
  Post-Emergent herbicidal rating, I Johnsongrass: 0 (0-24)
Johnsongrass [16]; [24]
  Post-Emergent herbicidal rating, I Johnsongrass: 1 (25-49)
Lambsquarter [17]; [25]
  Post-Emergent herbicidal rating, E Lambsquarter: 1 (25-49)
Lambsquarter [17]; [24]
  Post-Emergent herbicidal rating, E Lambsquarter: 1 (25-49)
Morningglory [18]; [25]
  Post-Emergent herbicidal rating, D Morningglory: 1 (25-49)
Morningglory [18]; [24]
  Post-Emergent herbicidal rating, D Morningglory: 1 (25-49)
Nutsedge [19]; [25]
  Post-Emergent herbicidal rating, G Nutsedge: 0 (0-24)
Nutsedge [19]; [24]
  Post-Emergent herbicidal rating, G Nutsedge: 1 (25-49)
Quackgrass [20]; [25]
  Post-Emergent herbicidal rating, H Quackgrass: 0 (0-24)
Quackgrass [20]; [24]
  Post-Emergent herbicidal rating, H Quackgrass: 1 (25-49)
Smartweed [21]; [25]
  Post-Emergent herbicidal rating, F Smartweed: 0 (0-24)
Smartweed [21]; [24]
  Post-Emergent herbicidal rating, F Smartweed: 1 (25-49)
Velvetleaf [22]; [25]
  Post-Emergent herbicidal rating, C Velvetleaf: 1 (25-49)
Velvetleaf [22]; [24]
  Post-Emergent herbicidal rating, C Velvetleaf: 1 (25-49)

## CCC(C)OC(=O)c1cn(C)nc1-c1cccc(C(F)(F)F)c1 (centres unmarked) [Example 20]
Barnyard grass [1]; [23]
  Pre-Emergent herbicidal rating, K Barnyard grass: 3 (75-100)
Bromus tectorum [2]; [23]
  Pre-Emergent herbicidal rating, J Bromus tectorum: 0 (0-24)
Canada Thistle [3]; [23]
  Pre-Emergent herbicidal rating, A Canada Thistle: 0 (0-24)
Cocklebur [4]; [23]
  Pre-Emergent herbicidal rating, B Cocklebur: 0 (0-24)
Johnsongrass [5]; [23]
  Pre-Emergent herbicidal rating, I Johnsongrass: 0 (0-24)
Lambsquarter [6]; [23]
  Pre-Emergent herbicidal rating, E Lambsquarter: 3 (75-100)
Morningglory [7]; [23]
  Pre-Emergent herbicidal rating, D Morningglory: 0 (0-24)
Nutsedge [8]; [23]
  Pre-Emergent herbicidal rating, G Nutsedge: 0 (0-24)
Quackgrass [9]; [23]
  Pre-Emergent herbicidal rating, H Quackgrass: 0 (0-24)
Smartweed [10]; [23]
  Pre-Emergent herbicidal rating, F Smartweed: 1 (25-49)
Velvetleaf [11]; [23]
  Pre-Emergent herbicidal rating, C Velvetleaf: 0 (0-24)
Barnyard grass [12]; [25]
  Post-Emergent herbicidal rating, K Barnyard grass: 0 (0-24)
Bromus tectorum [13]; [25]
  Post-Emergent herbicidal rating, J Bromus tectorum: 0 (0-24)
Canada Thistle [14]; [25]
  Post-Emergent herbicidal rating, A Canada Thistle: 1 (25-49)
Cocklebur [15]; [25]
  Post-Emergent herbicidal rating, B Cocklebur: 1 (25-49)
Johnsongrass [16]; [25]
  Post-Emergent herbicidal rating, I Johnsongrass: 1 (25-49)
Lambsquarter [17]; [25]
  Post-Emergent herbicidal rating, E Lambsquarter: 2 (50-74)
Morningglory [18]; [25]
  Post-Emergent herbicidal rating, D Morningglory: 0 (0-24)
Nutsedge [19]; [25]
  Post-Emergent herbicidal rating, G Nutsedge: 0 (0-24)
Quackgrass [20]; [25]
  Post-Emergent herbicidal rating, H Quackgrass: 0 (0-24)
Smartweed [21]; [25]
  Post-Emergent herbicidal rating, F Smartweed: 0 (0-24)
Velvetleaf [22]; [25]
  Post-Emergent herbicidal rating, C Velvetleaf: 1 (25-49)
